Key:
[1] = molecular target: T1, Human δ-opioid (DOP) (Homo sapiens, UniProt P41143); assay: Radioligand binding, human δ-opioid (DOP) membranes, FlashPlate, [3H]-Bremazocine; settings: compound at 10 μM, [3H]-Bremazocine
T1 construct: purchased Perkin Elmer Biosignal
Outline: (§1)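 Cloned human receptor membranes were coated onto FlashPlate wells and incubated with radioligand and compound (added from a 0.5 mM DMSO daughter plate) for 1 hour at room temperature in the dark. Scintillation counting gave percent inhibition, with DMSO defining total and reference ligand defining non-specific binding.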

[2] = molecular target: T2, Human κ-Opioid (KOP) (Homo sapiens, UniProt P41145); assay: Radioligand binding, human κ-opioid (KOP) membranes, filtration, [3H]-Diprenorphine; settings: compound at 10 μM, [3H]-Diprenorphine
T2 construct: purchased Perkin Elmer Biosignal
Outline: (§2)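 Percent inhibition of radioligand binding measured on recombinant human membranes: NK1 with [125I]-Substance P, KOP with [3H]-Diprenorphine. Incubation 1 h at room temperature, then harvest onto 0.3% PEI-soaked filters, cold Tris-HCl pH 7.4 washes and scintillation counting; non-specific binding from reference ligand wells.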

[3] = molecular target: T3, Human Melanocortin (MC3) (Homo sapiens, UniProt P41968); assay: Radioligand binding, human melanocortin MC3 membranes, FlashPlate, [125I]-NDP-αMSH; settings: compound at 10 μM, [125I]-NDP-αMSH
T3 construct: purchased Perkin Elmer Biosignal
Outline: as §1

[4] = molecular target: T4, Human Melanocortin (MC4) (Homo sapiens, UniProt P32245); assay: Radioligand binding, human melanocortin MC4 membranes, FlashPlate, [125I]-NDP-αMSH; settings: compound at 10 μM, [125I]-NDP-αMSH
T4 construct: purchased Perkin Elmer Biosignal
Outline: as §1

[5] = molecular target: T5, Human melanocortin (MC5) (Homo sapiens, UniProt P33032); assay: Radioligand binding, human melanocortin MC5 membranes, FlashPlate, [125I]-NDP-αMSH; settings: compound at 10 μM, [125I]-NDP-αMSH
T5 construct: purchased Perkin Elmer Biosignal
Outline: as §1

[6] = molecular target: T6, Human melanin-concentrating hormone (MCH1) (Homo sapiens, UniProt Q99705); assay: Radioligand binding, human melanin-concentrating hormone MCH1 membranes, FlashPlate, [125I]-S36057; settings: compound at 10 μM; for A6: inhibition of radioligand binding, human melanin-concentrating hormone (MCH1): [125I]-S36057
T6 construct: purchased Perkin Elmer Biosignal
Outline: as §1

[7] = molecular target: T7, Human μ-opioid (MOP) (Homo sapiens, UniProt P35372); assay: Radioligand binding, human μ-opioid (MOP) membranes, FlashPlate, [3H]-Naloxone; settings: compound at 10 μM, [3H]-Naloxone
T7 construct: purchased Perkin Elmer Biosignal
Outline: as §1

[8] = molecular target: T8, Human neurokinin (NK1) (Homo sapiens, UniProt P25103); assay: Radioligand binding, human neurokinin NK1 membranes, filtration, [125I]-Substance P; settings: compound at 10 μM, [125I]-Substance P
T8 construct: purchased Perkin Elmer Biosignal
Outline: as §2

[9] = molecular target: T9, Human neuropeptide Y (NPY-Y1) (Homo sapiens, UniProt P25929); assay: Radioligand binding, human neuropeptide Y NPY-Y1 membranes, FlashPlate, [125I]-PYY; settings: compound at 10 μM, [125I]-PYY
T9 construct: purchased Perkin Elmer Biosignal
T9 sequence (P25929 1-384): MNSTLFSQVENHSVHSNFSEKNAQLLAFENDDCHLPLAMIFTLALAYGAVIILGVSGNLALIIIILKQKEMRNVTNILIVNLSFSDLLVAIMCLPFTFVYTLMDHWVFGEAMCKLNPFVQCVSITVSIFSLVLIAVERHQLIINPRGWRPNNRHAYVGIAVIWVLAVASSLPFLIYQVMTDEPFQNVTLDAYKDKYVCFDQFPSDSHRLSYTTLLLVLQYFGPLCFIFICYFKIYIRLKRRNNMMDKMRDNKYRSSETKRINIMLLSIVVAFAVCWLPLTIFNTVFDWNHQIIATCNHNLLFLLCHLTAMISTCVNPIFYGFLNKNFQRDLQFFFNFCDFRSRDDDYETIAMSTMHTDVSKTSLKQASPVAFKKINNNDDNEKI
Outline: as §1

[10] = molecular target: T10, Human opioid (ORL1) (Homo sapiens, UniProt P41146); assay: Radioligand binding, human opioid ORL1 membranes, FlashPlate, [125I]-Nociceptin; settings: compound at 10 μM, [125I]-Nociceptin
T10 construct: purchased Perkin Elmer Biosignal
Outline: as §1

[11] = molecular target: T11, Mouse urotensin (mUR2) (Mus musculus, UniProt Q8VIH9); assay: Radioligand binding, mouse urotensin mUR2 membranes, FlashPlate, [125I]-Urotensin II; settings: compound at 10 μM, [125I]-Urotensin II
T11 construct: purchased Perkin Elmer Biosignal
T11 sequence (Q8VIH9 1-385): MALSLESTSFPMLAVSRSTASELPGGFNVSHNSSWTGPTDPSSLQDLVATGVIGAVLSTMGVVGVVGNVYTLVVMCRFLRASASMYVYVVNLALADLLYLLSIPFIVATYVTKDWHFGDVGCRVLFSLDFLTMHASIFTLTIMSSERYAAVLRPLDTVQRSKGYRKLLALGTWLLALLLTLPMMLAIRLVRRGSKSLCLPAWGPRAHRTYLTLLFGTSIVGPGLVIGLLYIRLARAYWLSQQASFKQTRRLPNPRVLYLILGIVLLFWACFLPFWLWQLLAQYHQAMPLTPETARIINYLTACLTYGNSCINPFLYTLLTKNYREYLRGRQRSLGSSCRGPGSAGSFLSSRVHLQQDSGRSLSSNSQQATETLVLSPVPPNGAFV
Outline: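 Cloned mouse urotensin (mUR2) receptor membranes from Perkin Elmer Biosignal were immobilized in FlashPlate microplates using a proprietary coating. Each well got 19.5 μl buffer, then 0.5 μl of DMSO, reference ligand, or compound. Adding 5 μl of [125I]-Urotensin II, diluted to 5× final concentration in binding buffer, started binding. Plates were sealed with TopSeal-A and incubated 1 hour at room temperature in the dark. Wells were counted for 30 seconds each on a TopCount after a 60-second delay, and percentage inhibition was calculated.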

T8 sequence (P25103 whole entry): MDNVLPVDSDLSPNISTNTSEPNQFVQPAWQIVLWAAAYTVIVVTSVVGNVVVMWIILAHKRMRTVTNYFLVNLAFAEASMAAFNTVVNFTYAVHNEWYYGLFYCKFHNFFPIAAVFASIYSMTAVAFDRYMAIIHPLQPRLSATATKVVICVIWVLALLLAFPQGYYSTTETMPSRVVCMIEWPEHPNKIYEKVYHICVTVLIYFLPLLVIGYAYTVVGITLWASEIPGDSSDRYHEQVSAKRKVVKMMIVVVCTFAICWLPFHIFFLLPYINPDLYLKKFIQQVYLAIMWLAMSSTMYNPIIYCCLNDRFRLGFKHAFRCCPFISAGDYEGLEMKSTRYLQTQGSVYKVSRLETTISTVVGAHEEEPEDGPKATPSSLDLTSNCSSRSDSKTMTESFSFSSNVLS
T3 sequence (P41968 whole entry): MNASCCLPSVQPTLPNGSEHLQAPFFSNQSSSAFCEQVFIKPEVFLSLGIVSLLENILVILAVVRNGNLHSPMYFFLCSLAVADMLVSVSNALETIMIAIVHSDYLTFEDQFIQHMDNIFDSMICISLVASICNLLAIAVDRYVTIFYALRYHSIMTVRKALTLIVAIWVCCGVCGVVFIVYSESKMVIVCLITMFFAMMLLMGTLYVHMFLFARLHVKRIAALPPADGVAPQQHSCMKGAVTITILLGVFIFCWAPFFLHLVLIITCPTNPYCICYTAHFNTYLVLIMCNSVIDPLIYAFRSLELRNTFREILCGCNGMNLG
T10 sequence (P41146 whole entry): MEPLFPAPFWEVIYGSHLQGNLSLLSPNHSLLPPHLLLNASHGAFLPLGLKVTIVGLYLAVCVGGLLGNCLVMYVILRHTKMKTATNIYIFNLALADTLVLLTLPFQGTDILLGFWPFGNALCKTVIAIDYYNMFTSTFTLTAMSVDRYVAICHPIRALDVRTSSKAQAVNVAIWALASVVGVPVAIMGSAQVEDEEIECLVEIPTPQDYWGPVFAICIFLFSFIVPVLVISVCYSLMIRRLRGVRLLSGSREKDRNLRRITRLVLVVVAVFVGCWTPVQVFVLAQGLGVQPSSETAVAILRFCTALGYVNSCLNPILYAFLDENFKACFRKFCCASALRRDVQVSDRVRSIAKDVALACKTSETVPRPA
T5 sequence (P33032 whole entry): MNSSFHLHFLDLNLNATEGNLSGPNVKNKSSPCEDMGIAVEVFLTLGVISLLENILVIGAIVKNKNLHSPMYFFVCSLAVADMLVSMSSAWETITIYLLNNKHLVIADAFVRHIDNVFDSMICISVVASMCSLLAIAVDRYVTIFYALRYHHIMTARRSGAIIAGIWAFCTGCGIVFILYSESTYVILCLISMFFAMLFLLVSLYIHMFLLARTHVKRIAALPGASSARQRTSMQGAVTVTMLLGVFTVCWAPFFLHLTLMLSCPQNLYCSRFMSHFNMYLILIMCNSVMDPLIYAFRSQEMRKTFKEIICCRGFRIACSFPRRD
T7 sequence (P35372 whole entry): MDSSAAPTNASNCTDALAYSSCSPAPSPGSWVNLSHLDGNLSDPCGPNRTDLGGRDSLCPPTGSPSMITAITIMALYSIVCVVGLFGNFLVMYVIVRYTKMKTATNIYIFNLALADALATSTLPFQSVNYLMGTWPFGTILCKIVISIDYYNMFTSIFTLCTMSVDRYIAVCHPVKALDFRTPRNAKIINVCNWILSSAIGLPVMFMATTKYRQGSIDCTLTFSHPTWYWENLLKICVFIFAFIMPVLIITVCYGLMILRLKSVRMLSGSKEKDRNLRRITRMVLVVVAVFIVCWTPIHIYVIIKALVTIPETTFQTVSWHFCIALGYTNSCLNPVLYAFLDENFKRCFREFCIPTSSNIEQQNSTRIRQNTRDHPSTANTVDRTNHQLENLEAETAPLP
T6 sequence (Q99705 whole entry): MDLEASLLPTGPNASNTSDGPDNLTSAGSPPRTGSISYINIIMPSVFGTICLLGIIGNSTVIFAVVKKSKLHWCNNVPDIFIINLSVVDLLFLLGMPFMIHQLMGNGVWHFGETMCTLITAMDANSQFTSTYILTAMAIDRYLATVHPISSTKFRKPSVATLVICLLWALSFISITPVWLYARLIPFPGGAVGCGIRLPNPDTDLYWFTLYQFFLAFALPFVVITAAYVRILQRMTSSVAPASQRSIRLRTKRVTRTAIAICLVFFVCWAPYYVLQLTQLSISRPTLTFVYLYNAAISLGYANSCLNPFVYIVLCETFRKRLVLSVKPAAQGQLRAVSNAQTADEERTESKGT
T4 sequence (P32245 whole entry): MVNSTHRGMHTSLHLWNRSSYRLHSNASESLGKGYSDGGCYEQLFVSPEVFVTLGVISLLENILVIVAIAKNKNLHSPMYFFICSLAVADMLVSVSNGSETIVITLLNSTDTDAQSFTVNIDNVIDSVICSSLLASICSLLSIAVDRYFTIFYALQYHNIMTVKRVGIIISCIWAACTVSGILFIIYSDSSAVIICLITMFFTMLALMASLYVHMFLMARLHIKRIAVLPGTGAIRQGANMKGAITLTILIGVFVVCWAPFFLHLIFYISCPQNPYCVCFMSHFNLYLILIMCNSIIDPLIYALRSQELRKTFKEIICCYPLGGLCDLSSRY
T1 sequence (P41143 whole entry): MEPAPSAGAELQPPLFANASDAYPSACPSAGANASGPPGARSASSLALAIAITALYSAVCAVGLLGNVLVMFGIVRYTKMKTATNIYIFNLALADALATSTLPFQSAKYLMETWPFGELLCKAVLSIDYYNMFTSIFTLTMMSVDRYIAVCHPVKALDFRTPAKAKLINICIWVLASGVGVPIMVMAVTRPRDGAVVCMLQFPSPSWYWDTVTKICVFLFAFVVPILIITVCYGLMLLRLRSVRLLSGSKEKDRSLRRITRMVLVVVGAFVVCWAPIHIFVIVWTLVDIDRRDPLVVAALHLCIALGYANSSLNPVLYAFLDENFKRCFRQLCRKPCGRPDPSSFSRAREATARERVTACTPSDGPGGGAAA
T2 sequence (P41145 whole entry): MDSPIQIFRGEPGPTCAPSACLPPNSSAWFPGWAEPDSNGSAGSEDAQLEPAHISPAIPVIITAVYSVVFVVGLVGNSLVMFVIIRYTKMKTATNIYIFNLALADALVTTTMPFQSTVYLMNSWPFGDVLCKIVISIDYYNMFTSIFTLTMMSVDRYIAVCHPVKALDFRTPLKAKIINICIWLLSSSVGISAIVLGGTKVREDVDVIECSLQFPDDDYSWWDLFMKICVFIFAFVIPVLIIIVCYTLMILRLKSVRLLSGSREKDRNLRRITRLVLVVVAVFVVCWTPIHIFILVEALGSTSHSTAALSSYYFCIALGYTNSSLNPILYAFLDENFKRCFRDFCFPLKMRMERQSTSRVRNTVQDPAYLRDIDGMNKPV

Structure (SMILES)	A1: inhibition of radioligand binding, human δ-opioid (DOP) [1]	A2: inhibition of radioligand binding, human κ-opioid (KOP) [2]	A3: inhibition of radioligand binding, human melanocortin (MC3) [3]	A4: inhibition of radioligand binding, human melanocortin (MC4) [4]	A5: inhibition of radioligand binding, human melanocortin (MC5) [5]	A6: inhibition of radioligand binding, human melanin-concentrating hormone (MCH1) [6]	A7: inhibition of radioligand binding, human μ-opioid (MOP) [7]	A8: inhibition of radioligand binding, human neurokinin (NK1) [8]	A9: inhibition of radioligand binding, human neuropeptide Y (NPY-Y1) [9]	A10: inhibition of radioligand binding, human opioid (ORL1) [10]	A11: inhibition of radioligand binding, mouse urotensin (mUR2) [11]	further results
CSC1OC(COCc2ccc(-c3ccccc3)cc2)C(O)C(OCc2ccc3ccccc3c2)C1NC(=O)CCNC(=N)N (stereo not shown) [compound 314]	− (“−” indicates less than 50% inhibition at 10 μM)	− (“−” indicates less than 50% inhibition at 10 μM)	− (“−” indicates less than 50% inhibition at 10 μM)	− (“−” indicates less than 50% inhibition at 10 μM)	− (“−” indicates less than 50% inhibition at 10 μM)	− (“−” indicates less than 50% inhibition at 10 μM)	− (“−” indicates less than 50% inhibition at 10 μM)	+ (“+” indicates greater than 50% inhibition at 10 μM)	− (“−” indicates less than 50% inhibition at 10 μM)	− (“−” indicates less than 50% inhibition at 10 μM)	− (“−” indicates less than 50% inhibition at 10 μM)	–
NCCC(=O)NC1C(OCc2ccc(Cl)cc2)OC(COCc2ccc3ccccc3c2)C(O)C1OCc1ccc2ccccc2c1 (single isomer, unassigned) [compound 478]	− (“−” indicates less than 50% inhibition at 10 μM)	− (“−” indicates less than 50% inhibition at 10 μM)	–	–	+ (“+” indicates greater than 50% inhibition at 10 μM)	–	− (“−” indicates less than 50% inhibition at 10 μM)	+ (“+” indicates greater than 50% inhibition at 10 μM)	− (“−” indicates less than 50% inhibition at 10 μM)	–	− (“−” indicates less than 50% inhibition at 10 μM)	A3: inhibition of radioligand binding, human melanocortin (MC3) ([3]; 10 µM): + (“+” indicates greater than 50% inhibition at 10 μM); A4: inhibition of radioligand binding, human melanocortin (MC4) ([4]; 10 µM): + (“+” indicates greater than 50% inhibition at 10 μM); A6: inhibition of radioligand binding, human melanin-concentrating hormone (MCH1) ([6]; 10 µM): + (“+” indicates greater than 50% inhibition at 10 μM); A10: inhibition of radioligand binding, human opioid (ORL1) ([10]; 10 µM): − (“−” indicates less than 50% inhibition at 10 μM)
CSC1OC(COCc2ccc(-c3ccccc3)cc2)C(O)C(OCc2ccc3ccccc3c2)C1NC(=O)CNC(=N)N (stereo not shown) [compound 312]	− (“−” indicates less than 50% inhibition at 10 μM)	− (“−” indicates less than 50% inhibition at 10 μM)	+ (“+” indicates greater than 50% inhibition at 10 μM)	+ (“+” indicates greater than 50% inhibition at 10 μM)	+ (“+” indicates greater than 50% inhibition at 10 μM)	− (“−” indicates less than 50% inhibition at 10 μM)	− (“−” indicates less than 50% inhibition at 10 μM)	+ (“+” indicates greater than 50% inhibition at 10 μM)	− (“−” indicates less than 50% inhibition at 10 μM)	− (“−” indicates less than 50% inhibition at 10 μM)	− (“−” indicates less than 50% inhibition at 10 μM)	–
CC(=O)N[C@H]1C(NC(=O)CNC(=O)OC(C)(C)C)O[C@H](CO)[C@@H](O)[C@@H]1OCc1ccccc1 (stereo partly shown) [compound 359]	− (“−” indicates less than 50% inhibition at 10 μM)	− (“−” indicates less than 50% inhibition at 10 μM)	− (“−” indicates less than 50% inhibition at 10 μM)	− (“−” indicates less than 50% inhibition at 10 μM)	− (“−” indicates less than 50% inhibition at 10 μM)	− (“−” indicates less than 50% inhibition at 10 μM)	− (“−” indicates less than 50% inhibition at 10 μM)	+ (“+” indicates greater than 50% inhibition at 10 μM)	+ (“+” indicates greater than 50% inhibition at 10 μM)	− (“−” indicates less than 50% inhibition at 10 μM)	− (“−” indicates less than 50% inhibition at 10 μM)	–
NCCC(=O)NC1C(OCc2ccc3ccccc3c2)OC(COCc2ccc(Cl)cc2)C(O)C1OCc1ccc2ccccc2c1 (stereo not shown) [compound 386]	–	–	–	–	–	–	–	–	–	–	–	A1: inhibition of radioligand binding ([1]; human DOP membranes): − (“−” indicates less than 50% inhibition at 10 μM); A2: inhibition of radioligand binding ([2]; human KOP membranes): − (“−” indicates less than 50% inhibition at 10 μM); A3: inhibition of radioligand binding ([3]; human MC3 membranes): + (“+” indicates greater than 50% inhibition at 10 μM); A4: inhibition of radioligand binding ([4]; human MC4 membranes): + (“+” indicates greater than 50% inhibition at 10 μM); A5: inhibition of radioligand binding ([5]; human MC5 membranes): + (“+” indicates greater than 50% inhibition at 10 μM); A6: inhibition of radioligand binding ([6]; [125I]-S36057, human MCH1 membranes): − (“−” indicates less than 50% inhibition at 10 μM); A7: inhibition of radioligand binding ([7]; human MOP membranes): − (“−” indicates less than 50% inhibition at 10 μM); A8: inhibition of radioligand binding ([8]; human NK1 membranes): + (“+” indicates greater than 50% inhibition at 10 μM); A9: inhibition of radioligand binding ([9]; human NPY-Y1 membranes): − (“−” indicates less than 50% inhibition at 10 μM); A10: inhibition of radioligand binding ([10]; human ORL1 membranes): − (“−” indicates less than 50% inhibition at 10 μM); A11: inhibition of radioligand binding ([11]; mouse mUR2 membranes): − (“−” indicates less than 50% inhibition at 10 μM)

Source: patent US20080009418A1, “Selective Inhibitors” (Alchemia LTD., priority 2004, published 2008)
